From paper PMC10587126, “Molecular hybridization strategy for tuning bioactive peptide function” (Communications Biology, 2023)
Like-named read-outs stand apart in the source and are kept apart here. No end group written: not given here.

Assays:
[1] = tested on: human erythrocytes; experiment: Hemolytic activity; format: cell-based; details: 0.1–100 μmol L^−1 in PBS, room temperature, 1 h, absorbance 405 nm
Experimental: Assays against freshly collected human erythrocytes were performed following protocols described by Pedron et al.[54]. Briefly, peptide aliquots at concentrations ranging from 0.1 to 100 μmol L^−1 were incubated with a suspension of erythrocytes at room temperature for 1 h. The samples were then centrifuged, and the absorbance of the supernatant was measured at 405 nm. […] The surfactant SDS and PBS buffer were used as positive[81],[82] and negative controls, respectively. Sodium heparin was used as an anticoagulant when collecting human blood. Three biological repeats were performed. All experiments were performed in accordance with the protocol CEUA/IB #I-1345/15 approved by the Instituto Butantan.

[2] = Resistance to proteolytic degradation in fetal bovine serum; format: in vitro ADME; details: 25% fetal bovine serum in water, 37 °C
Experimental: Stability assays were performed following the protocol described by Torres et al.[67]. Briefly, a peptide solution was added to GIBCO fetal bovine serum diluted to 25% in water and kept at 37 °C. The degradation kinetics were monitored by liquid chromatography and the percentage of peptide remaining in each case was calculated by integrating the peptide peak area. These experiments were performed as three independent replicates, and aliquots were taken at 0, 0.5, 1, 2, 4, and 6 h.

[3] = Mouse body weight in the skin abscess infection model; format: in vivo
Experimental: The anti-infective activity of the peptides VmCT1, temporin A, VT, and TV against A. baumannii ATCC 19606 was evaluated as described by Torres et al.[7],[83] Bacteria were grown in tryptic soy broth medium to an optical density of 0.5 at 600 nm. Cells were washed twice with sterile phosphate-buffered saline (pH 7.4, 13,000 rpm for 1 min) and resuspended to a final concentration of 1 × 10^7 CFU/20 μL. To generate the skin infection, female CD-1 mice (6-weeks-old) were first anesthetized with isoflurane and their backs were shaved. Using a needle, a superficial linear abrasion was made on the shaved area of the mice to injure just the stratum corneum and the upper layer of the epidermis. An aliquot of 20 μL containing 1 × 10^7 CFU of A. baumannii was then inoculated over the wound area with a pipette tip. The next day, the infected area was treated with the peptides (i.e., VmCT1, temporin A, VT, and TV), which were administered onto the abscess at their MIC. The animals were euthanized, and the scarified skin area removed 2- and 4-days post-infection. The excised area was homogenized using a bead beater for 20 min (25 Hz) and serially diluted for CFU quantification. Eight mice were used per group (n = 8). All experiments were performed in accordance with protocol 806763 approved by the IACUC at the University of Pennsylvania.

[4] = Skin tissue histopathological analysis (H&E); format: in vivo, mouse; details: H&E staining, tissue collected 24 h after infection and treatment, three mice per condition
Experimental: The fur on the back of the mice was removed and the mice were infected and treated as described in the Skin abscess infection mouse model section. After 24 h, mice were euthanized for tissue collection. Samples were pre-fixed in individual cassettes, then transferred to a container filled with 70% ethanol (EtOH) for slicing and staining. Next, the samples were placed on glass slides for microscopy analysis. We collected the tissue from three mice per condition analyzed.

[5] = tested on: human erythrocytes; details: at 100 µmol L^−1; cited from earlier work
Description: These observations are consistent with our results for PV, which incorporated protonectin’s hydrophobic face (Fig. 2) displaying increased antimicrobial activity than VP (Fig. 3). Additi ...

[6] = LC peak area, time 0 = 100, 0.5 h, replicate 1
[7] = LC peak area, time 0 = 100, 0.5 h, replicate 2
[8] = LC peak area, time 0 = 100, 0.5 h, replicate 3
[9] = LC peak area, time 0 = 100, 1 h, replicate 1
[10] = LC peak area, time 0 = 100, 1 h, replicate 2
[11] = LC peak area, time 0 = 100, 1 h, replicate 3
[12] = LC peak area, time 0 = 100, 2 h, replicate 1
[13] = LC peak area, time 0 = 100, 2 h, replicate 2
[14] = LC peak area, time 0 = 100, 2 h, replicate 3
[15] = LC peak area, time 0 = 100, 4 h, replicate 1
[16] = LC peak area, time 0 = 100, 4 h, replicate 2
[17] = LC peak area, time 0 = 100, 6 h, replicate 1
[18] = LC peak area, time 0 = 100, 6 h, replicate 2
[19] = LC peak area, time 0 = 100, 6 h, replicate 3
[20] = day 0 = 100, Day 1, replicate 1
[21] = day 0 = 100, Day 1, replicate 2
[22] = day 0 = 100, Day 1, replicate 3
[23] = day 0 = 100, Day 2, replicate 1
[24] = day 0 = 100, Day 2, replicate 2
[25] = day 0 = 100, Day 2, replicate 3
[26] = day 0 = 100, Day 3, replicate 1
[27] = day 0 = 100, Day 3, replicate 2
[28] = day 0 = 100, Day 3, replicate 3
[29] = day 0 = 100, Day 4, replicate 1
[30] = day 0 = 100, Day 4, replicate 2
[31] = day 0 = 100, Day 4, replicate 3
[32] = LC peak area, time 0 = 100, 4 h, replicate 3

| Substance | Hemolytic activity (concentration of peptide needed to kill 10% of red blood cells) [1] [µmol/L] | Peptide remaining [2, 6] | Peptide remaining [2, 7] | Peptide remaining [2, 8] | Peptide remaining [2, 9] | Peptide remaining [2, 10] | Peptide remaining [2, 11] | Peptide remaining [2, 12] | Peptide remaining [2, 13] | Peptide remaining [2, 14] | Peptide remaining [2, 15] | Peptide remaining [2, 16] | Peptide remaining [2, 17] | Peptide remaining [2, 18] | Peptide remaining [2, 19] | Mouse body weight, normalized to the weight at the beginning of the experiment [3, 20] | Mouse body weight, normalized to the weight at the beginning of the experiment [3, 21] | Mouse body weight, normalized to the weight at the beginning of the experiment [3, 22] | Mouse body weight, normalized to the weight at the beginning of the experiment [3, 23] | Mouse body weight, normalized to the weight at the beginning of the experiment [3, 24] | further results |
| --- | --- | --- | --- | --- | --- | --- | --- | --- | --- | --- | --- | --- | --- | --- | --- | --- | --- | --- | --- | --- | --- |
| FLGAIGNVLKSIL-NH2 [TV] | 0.2 | 0 | 0 | 0 | 0 | 0 | 0 | 0 | 0 | 0 | 0 | 0 | 0 | 0 | 0 | 90 | 90 | 100 | 90 | 95 | Peptide remaining after 30 min ([2]; LC peak area vs time 0, 30 min, three replicates): totally degraded; remaining at 4 h ([2]; fetal bovine serum, 25% in water, LC peak area, time 0 = 100, 4 h, replicate 3, read-out: Peptide remaining): 0%; Mouse body weight, normalized to the weight at the beginning of the experiment [3, 25]: 100; Mouse body weight, normalized to the weight at the beginning of the experiment [3, 26]: 90; Mouse body weight, normalized to the weight at the beginning of the experiment [3, 27]: 95; Mouse body weight, normalized to the weight at the beginning of the experiment [3, 28]: 105; Mouse body weight, normalized to the weight at the beginning of the experiment [3, 29]: 85; Mouse body weight, normalized to the weight at the beginning of the experiment [3, 30]: 95; Mouse body weight, normalized to the weight at the beginning of the experiment [3, 31]: 100; Histopathological effect on skin tissue (in words) [4]: Neither TV nor VmCT1 changed the tissue’s morphology |
| SLLSLIRKLIT-NH2 [Decoralin, reference compound] | 1.6 |  |  | 0.0 |  |  | 0.0 |  |  | 0.0 | 0.0 | 0.0 | 0.0 | 0.0 | 0.0 |  |  |  |  |  | Peptide remaining [2, 32]: 0.0; remaining at 0.5 h ([2]; fetal bovine serum, 25% in water, LC peak area, time 0 = 100, 0.5 h, replicate 1, read-out: Peptide remaining): 71%; remaining at 0.5 h ([2]; fetal bovine serum, 25% in water, LC peak area, time 0 = 100, 0.5 h, replicate 2, read-out: Peptide remaining): 65%; remaining at 1 h ([2]; fetal bovine serum, 25% in water, LC peak area, time 0 = 100, 1 h, replicate 1, read-out: Peptide remaining): 26%; remaining at 1 h ([2]; fetal bovine serum, 25% in water, LC peak area, time 0 = 100, 1 h, replicate 2, read-out: Peptide remaining): 23%; remaining at 2 h ([2]; fetal bovine serum, 25% in water, LC peak area, time 0 = 100, 2 h, replicate 1, read-out: Peptide remaining): 29%; remaining at 2 h ([2]; fetal bovine serum, 25% in water, LC peak area, time 0 = 100, 2 h, replicate 2, read-out: Peptide remaining): 23%; Hemolytic activity (in words) [5]: low hemolytic activity |
| FLGALWNVAKSVF-NH2 [VmCT1, reference compound] |  | 28.5 | 24.4 | 26.5 | 6.3 | 8.5 | 7.4 | 10.5 | 13.9 | 11.9 | 0.0 | 0.0 | 0.0 | 0.0 | 0.0 | 90 | 100 | 105 | 90 | 95 | Peptide remaining [2, 32]: 0.0; Mouse body weight, normalized to the weight at the beginning of the experiment [3, 25]: 100; Mouse body weight, normalized to the weight at the beginning of the experiment [3, 26]: 95; Mouse body weight, normalized to the weight at the beginning of the experiment [3, 27]: 100; Mouse body weight, normalized to the weight at the beginning of the experiment [3, 28]: 105; Mouse body weight, normalized to the weight at the beginning of the experiment [3, 29]: 90; Mouse body weight, normalized to the weight at the beginning of the experiment [3, 30]: 100; Mouse body weight, normalized to the weight at the beginning of the experiment [3, 31]: 100; Histopathological effect on skin tissue (in words) [4]: Neither TV nor VmCT1 changed the tissue’s morphology |
